Reference: US11472807B2, “Purine derivatives for use as medicament and for use in treating neurodegenerative or neuro-inflammatory disorders” (COMMISSARIAT À L'ENERGIE ATOMIQUE ET AUX ENERGIES …, priority 2017, dated 2022)

How the values were obtained:
IL-6 cytokine = experiment: Secreted IL-6 in LPS-treated human primary glial cells (MSD ELISA); format: cell-based; details: LPS 6 h, then purine derivative 10 μM for 18 h
Method: For assessing the cytokine production, human primary glial cells were grown until confluent on coated collagen 12-well plates. Cells were serum-starved in glial serum-free medium for 2 h and treated with LPS for 6 h before treatment with purine derivatives (10 μM) for an additional 18 h. Supernatants were harvested and secreted IL-6 cytokine was measured by ELISA by the mean of the Meso Scale Discovery (MSD) technology. Briefly, a 96-well plate having 1 spot pre-coated with the corresponding antibody is provided by MSD Technology. Before adding the samples, a first saturation step is required. Once the plate is saturated and washed, 25 μL of sample (or calibrators) per well are loaded and incubated for 1 hour. Then the plate is washed and incubated with 25 μL of the Detection Antibody solution (MSD SULFO-TAG) for 1 hour. At the end of the incubation, the plate is washed and then a chemical solution (Read buffer 1×) is added allowing electrochemiluminescence. After a short incubation (5 min) at room temperature, the plate is read on the QUICK Plex SQ120. The instrument measures the intensity of the light electrochemiluminescence.

p-Tau (Thr212) = experiment: p-Tau (Thr212)/total Tau in rat cortical neurons (western-blot); format: cell-based; details: purine derivative 10 μM (A100), 18 h
Method: Cells were lysed in freshly prepared lysis buffer containing in mM: Tris-HCl 50, EDTA 2, EGTA 2, NaCl 100, SDS 0.2%, Triton X-100 1%, proteases inhibitors (Roche Protease Inhibitor Cocktail #04693116001), phosphatases inhibitors (in mM: ammonium molybdate 0.1, β-glycerophosphate 20, NaF 50, Na-pyrophosphate 10, Orthovanadate 1). Protein concentration was measured by the Bradford assay and Laemmli buffer was added to each lysate. Proteins (10 μg per lane) were resolved on 12% Nu-PAGE (LifeTechonoliges #NP0342BOX) using MOPS SDS running buffer and transferred on Immobilon-FL PVDF membrane (Millipore #IPFL00010). Membranes were blocked one hour in TBS Tween20 0.1% BSA 5% at room temperature. Primary antibodies were incubated O/N at 4° C. and detected by Alexa 488 conjugated secondary antibodies (Life Techonologies #A11034 and A11029) diluted 1:1.000 in TBS Tween20 0.05% and 1% BSA. The antibodies specific for pThr212-Tau (Abcam #ab4842), pThr181-Tau (AbCam #ab75679), Tau (Millipore #MAB361), APP (Millipore #07-667) and Actin (Millipore #MAB1501) were diluted in TBS Tween20 0.05% and 1% BSA. Fluorescent signal was visualized with the VersaDoc™ Imaging System (Bio-Rad Laboratories) and quantified with Quantity One® Analysis Software. Grey levels measured for bands of interest were normalized to the corresponding actin bands.
For assessing the protein Tau's phosphorylation, the culture media of rat cortical neurons were replaced by incubation medium containing purine derivatives at 10 μM (A100) or vehicle (0.1% DMSO; Control). After 18 h incubation p-Tau (Thr212) and total Tau were quantified in the cellular extracts by western-blot.

Structure (SMILES) | Anti-inflammatory Compounds (secreted IL-6) (IL-6 cytokine) | Attenuation of P-Tau/Tau ratio (p-Tau (Thr212))
CC[C@H](CO)Nc1nc(NCc2ccccc2)c2ncn(C(C)C)c2n1 [Roscovitine, (R)-roscovitine, reference compound] | +(>1 μM) (“+” means that the tested compound shows an anti-inflammatory and/or attenuation of Tau's phosphorylation property with a concentration higher than 1 μM) | 
CC[C@H](CO)Nc1nc(N(CC)Cc2ccccc2)c2ncn(C(C)C)c2n1 [Compound 13] | +(>1 μM) (“+” means that the tested compound shows an anti-inflammatory and/or attenuation of Tau's phosphorylation property with a concentration higher than 1 μM) | +(>1 μM) (“+” means that the tested compound shows an anti-inflammatory and/or attenuation of Tau's phosphorylation property with a concentration higher than 1 μM)
CC[C@@H](CO)Nc1nc(N(C)c2ccccc2)c2ncn(C(C)C)c2n1 [Compound 26] | +(>1 μM) (“+” means that the tested compound shows an anti-inflammatory and/or attenuation of Tau's phosphorylation property with a concentration higher than 1 μM) | 
CC[C@H](CO)Nc1nc(OCc2ccccc2)c2ncn(C(C)C)c2n1 [Compound 31] | +(>1 μM) (“+” means that the tested compound shows an anti-inflammatory and/or attenuation of Tau's phosphorylation property with a concentration higher than 1 μM) | +(>1 μM) (“+” means that the tested compound shows an anti-inflammatory and/or attenuation of Tau's phosphorylation property with a concentration higher than 1 μM)
CCN(CC)CCNc1nc(N(CC)Cc2ccccc2)c2ncn(C3CCCC3)c2n1 [Compound 22] | +(>1 μM) (“+” means that the tested compound shows an anti-inflammatory and/or attenuation of Tau's phosphorylation property with a concentration higher than 1 μM) | +(>1 μM) (“+” means that the tested compound shows an anti-inflammatory and/or attenuation of Tau's phosphorylation property with a concentration higher than 1 μM)
CC[C@H](CO)Nc1nc(N(C)Cc2ccccc2)c2ncn(C3CCCC3)c2n1 [Compound 14] | +(>1 μM) (“+” means that the tested compound shows an anti-inflammatory and/or attenuation of Tau's phosphorylation property with a concentration higher than 1 μM) | +(>1 μM) (“+” means that the tested compound shows an anti-inflammatory and/or attenuation of Tau's phosphorylation property with a concentration higher than 1 μM)
CC[C@H](CO)Nc1nc(N(C)Cc2ccccc2)c2ncn(C(C)C)c2n1 [Aftin-4] | +(>1 μM) (“+” means that the tested compound shows an anti-inflammatory and/or attenuation of Tau's phosphorylation property with a concentration higher than 1 μM) | 
CCN(Cc1ccccc1)c1nc(N[C@@H](CO)C(C)C)nc2c1ncn2C1CCCC1 [Compound 15] | +(>1 μM) (“+” means that the tested compound shows an anti-inflammatory and/or attenuation of Tau's phosphorylation property with a concentration higher than 1 μM) | +(>1 μM) (“+” means that the tested compound shows an anti-inflammatory and/or attenuation of Tau's phosphorylation property with a concentration higher than 1 μM)
CCCN(Cc1ccccc1)c1nc(N[C@H](CC)CO)nc2c1ncn2C(C)C [Compound 20] | +(>1 μM) (“+” means that the tested compound shows an anti-inflammatory and/or attenuation of Tau's phosphorylation property with a concentration higher than 1 μM) | +(>1 μM) (“+” means that the tested compound shows an anti-inflammatory and/or attenuation of Tau's phosphorylation property with a concentration higher than 1 μM)
